Results on 19 compounds are retold here after US10202403B2, “Macrocyclic benzofuran compounds for the treatment of hepatitis C” (BRISTOL-MYERS SQUIBB COMPANY, priority 2014, dated 2019).

In the first data set the test system is HCV.
Assay: not given
To be noted: extended dosing of the combination regimens; development suspended; cited from earlier work.
For the compound `CNC(=O)c1c(-c2ccc(F)cc2)oc2cc(N(CCO)S(C)(=O)=O)c(C3CC3)cc12` [HCV-796], the hepatic toxicity result is on record as “hepatic toxicity observed”.

The data set is the same for the next values; noted with them: patients; single agent: transient decrease then rebound; more robust drop with interferon and ribavirin; cited from earlier work.
In the case of `CNC(=O)c1c(-c2ccc(F)cc2)oc2cc(N(CCO)S(C)(=O)=O)c(C3CC3)cc12` [HCV-796], the “HCV RNA levels in patients” value was “reduce HCV RNA levels in patients”.

In the next data set the test system is genotype 1b (Con-1) HCV replicon. The data set can be described thus: HCV replicon luciferase assay. The class given is cell-based, HCV genotype 1b (Con-1) in human Huh-7 cells. The following applies: Hepatitis C virus, 72 h; genotype 1b replicon, Huh-7, Renilla luciferase, 3 days incubation. As for the experimental part:
Cell Lines. The cell lines used to evaluate compounds consist of a human hepatocyte derived cell line (Huh-7) that constitutively expresses a genotype 1b (Con-1) HCV replicon or a genotype 1b (Con-1) HCV replicon with an asparagine replacing the cysteine at amino acid 316, or a genotype 2a (JFH-1) replicon, containing a Renilla luciferase reporter gene. These cells were maintained in Dulbecco's modified Eagle medium (DMEM) containing 10% FBS, 100 U/mL penicillin/streptomycin and 1.0 mg/mL G418.
HCV replicon luciferase assay.To evaluate compound efficacy, titrated compounds were transferred to sterile 384-well tissue culture treated plates, and the plates were seeded with HCV replicon cells (50 μL at a density of 2.4×10^3 cells/well) in DMEM containing 4% FBS (final DMSO concentration at 0.5%). After 3 days incubation at 37° C., cells were analyzed for Renilla Luciferase activity using the EnduRen substrate (Promega cat #E6485) according to the manufacturer's directions. Briefly, the EnduRen substrate was diluted in DMEM and then added to the plates to a final concentration of 7.5 μM. The plates were incubated for at least 1 hour at 37° C., then read on a Viewlux Imager (PerkinElmer) using a luminescence program. The 50% effective concentration (EC50) was calculated using the four-parameter logistic formula noted above.
As for `CNC(=O)c1c(-c2ccc(F)cc2)oc2ccc3c(c12)CC=CCO3` [Compound 1001], a half-maximal effect (EC50) was put at 2.08 µM.

The compound `C=CC1Cc2c(ccc3oc(-c4ccc(F)cc4)c(C(=O)NC)c23)O1` (centres unmarked) [Compound 1002] displayed an EC50 of 0.672 µM.

As for `CNC(=O)c1c(-c2ccc(F)cc2)oc2ccc3c(c12)Cc1ccccc1-c1ccccc1CO3` [Compound 1003], a half-maximal effect (EC50) was put at 2.84 µM.

For `CNC(=O)c1c(-c2ccc(F)cc2)oc2ccc3c(c12)Cc1cccc2cccc(c12)CO3` [Compound 1004], the EC50 was more than 10 µM.

The compound `CNC(=O)c1c(-c2ccc(F)cc2)oc2ccc3c(c12)CCc1cccc(c1)CCO3` [Compound 1005] had an EC50 of more than 10 µM.

The compound `CNC(=O)c1c(-c2ccc(F)cc2)oc2ccc3c(c12)CCOCCOCCO3` [Compound 1006] showed an EC50 of more than 10 µM.

With `CNC(=O)c1c(-c2ccc(F)cc2)oc2ccc3c(c12)CCCCCCO3` [Compound 1007], the EC50 came out at 1.29 µM.

With `CNC(=O)c1c(-c2ccc(F)cc2)oc2ccc3c(c12)CCCCCCCO3` [Compound 1008], the midpoint of the response, the EC50, lay at 1.82 µM.

`CNC(=O)c1c(-c2ccc(F)cc2)oc2ccc3c(c12)CCCCCCCCO3` [Compound 1009] showed an EC50 of 2.08 µM.

Compound `CNC(=O)c1c(-c2ccc(F)cc2)oc2ccc3c(c12)CCCCCCCCCO3` [Compound 1010] showed an EC50 of 1.63 µM.

Regarding `CNC(=O)c1c(-c2ccc(F)cc2)oc2ccc3c(c12)CCCCCCCCCCO3` [Compound 1011], the response was half-maximal at 1.08 µM (EC50).

For `CNC(=O)c1c(-c2ccc(F)cc2)oc2ccc3c(c12)CCCCCCCCCCCO3` [Compound 1012], the EC50 is 0.53 µM.

`CNC(=O)c1c(-c2ccc(F)cc2)oc2ccc3c(c12)CCCCCCCCCCCCO3` [Compound 1013] returned an EC50 of 1.51 µM.

As to `CNC(=O)c1c(-c2ccc(F)cc2)oc2ccc3c(c12)CCN(S(=O)(=O)c1ccc(C)cc1)CCO3` [Compound 1014], the half-maximal effective concentration (EC50) is more than 10 µM.

Regarding `CNC(=O)c1c(-c2ccc(F)cc2)oc2ccc3c(c12)Cc1cccc(n1)COc1ccc2oc(-c4ccc(F)cc4)c(C(=O)NC)c2c1Cc1cccc(n1)CO3` [Compound 2001], it took 6.67 µM to reach a half-maximal effect (EC50).

`C=C1COc2ccc3oc(-c4ccc(F)cc4)c(C(=O)NC)c3c2CC(=C)COc2ccc3oc(-c4ccc(F)cc4)c(C(=O)NC)c3c2C1` [Compound 2002] came in with an EC50 of 3.65 µM.

`CNC(=O)c1c(-c2ccc(F)cc2)oc2ccc3c(c12)Cc1cccc(c1)COc1ccc2oc(-c4ccc(F)cc4)c(C(=O)NC)c2c1Cc1cccc(c1)CO3` [Compound 2004] came in with an EC50 of more than 10 µM.

In turn, `CNC(=O)c1c(-c2ccc(F)cc2)oc2ccc3c(c12)CC1(CC1)COc1ccc2oc(-c4ccc(F)cc4)c(C(=O)NC)c2c1CC1(CC1)CO3` [Compound 2005] came in with an EC50 of 0.931 µM.
